Laboratory results taken from patent publication US20240350536A1, “Application of Bi-Phenols in Anti-ototoxicity and Hearing Protection” (Northwestern University, priority 2017, published 2024).
Entries after “also recorded” stand apart in the source; their conditions may differ. Like-named read-outs stand apart in the source and are kept apart here.

Key:
[1] = tested on: cervical cancer cells; assay: Survival of cervical cancer cells with cisplatin and honokiol; type: cell-based
Protocol: (§1) FIG. 10. […] C: cisplatin; H: honokiol. […] Each treatment was repeated in triplets. The data were normalized by the number of untreated control (C0H0).
(§2) Because the role of SIRT3 may be different in different cancers, we selected three (3) different cancer cells for testing: prostate cancer cells, cervical cancer cells, and colon cancer cells. (See FIG. 10). Cisplatin was administered to the cancer cell lines with honokiol.

[2] = tested on: colon cancer cells; assay: Survival of colon cancer cells with cisplatin and honokiol; type: cell-based
Protocol: as §1, §2

[3] = tested on: outer hair cell (OHC) function; type: in vivo, mice
Protocol: FIG. 12A-12E. HNK protection against cisplatin-induced changes of DPOAE amplitude. […] The DPOAE shift, normalized to Day 0, of all the groups are plotted in (FIG. 12B to FIG. 12E). […] The results of the 2 animals in Cis 15 mg/kg group on Day 14 were both plotted in (FIG. 12B) as the dashed lines and open circles. […].
Distortion product oto-acoustic emissions (DPOAEs), which are an indication of outer hair cell (OHC) function, were measured in a separate series of experiments to estimate OHC protection by honokiol (HNK). (See FIG. 12A-12E). […] (See FIGS. 12D and 12E). After pre-treatment with HNK at a dosage of 10 mg/kg, the DPOAE shift was observed only at frequencies of 27 kHz and higher with a much smaller amplitude. (See FIG. 12D).

[4] = tested on: HEI-OC1 cells
From the text: FIG. 9. […] The data were normalized to the number of cells in the negative control (C0H0).
(§3) (See FIG. 9). […] (See FIG. 9). […] (See FIG. 9).

[5] = tested on: SIRT3, Caspase 3, PARP in HEI-OC1 cells; assay: Western blot of SIRT3 and apoptosis-related proteins in HEI-OC1 cells; type: cell-based, mouse
Protocol: FIG. 9. […] (A) C: cisplatin; H: HNK. […] Cisplatin and honokiol were added simultaneously.
as §3

[6] = literature statement, cited from earlier work
[7] = tested on: outer hair cells (OHC); assay: Immunofluorescent histochemistry and confocal imaging of cochlear whole mount; type: in vivo, mice
From the text: FIG. 13. Confocal images of the immunostaining (merged) of cochleae treated with Cis 15 (A) and Cis 15+HNK 20 (B) mg/kg, under 20× objectives.
FIG. 14. High-resolution confocal images (60× […]) of cochleae treated with Cis 15 (Left) and Cis 15+HNK 20 (Right), taken at the locations marked by white squares in FIGS. 13A and B, respectively. The white arrows indicate the nuclei of the remaining OHCs and the hollow arrows indicate missing OHCs. Note the panels for hair bundles (phalloidin staining) might be off focus and are only for indicating the correct position of the bodies and nuclei of the OHCs.
Immunofluorescent histochemistry (IFHC) of a cochlear whole mount was performed after the physiological studies described above using prestin antibody (for outer hair cells (OHC)), phalloidin (for hair bundle) and 4′,6-diamidino-2-phenylindole (DAPI) (for nuclei). […] (See FIG. 14A). HC loss can be indicated by the scarcity of remaining nuclei (white arrows).

[8] = tested on: prostate cancer cells (C4-2B); assay: Survival of prostate cancer cells with cisplatin and honokiol; type: cell-based
Protocol: as §1, §2

[9] = tested on: mice; assay: Auditory Brainstem Response (ABR) threshold shift in cisplatin-treated mice; type: in vivo
From the text: Average=256. The error bars of all data points are standard deviations.

[10] = Weight loss and animal survival in cisplatin-treated mice; type: in vivo
From the text: (See FIG. 15). […] (See FIG. 15). […] (See FIG. 15A). […] (See FIG. 15B).

[11] = honokiol co-administered with cisplatin
[12] = cisplatin with honokiol pre-treatment

C=CCc1ccc(O)c(-c2ccc(O)c(CC=C)c2)c1 [honokiol, 2-(4-hydroxy-3-prop-2-enyl-phenyl)-4-prop-2-enyl-phenol]
effect with cisplatin on cervical cancer cells ([1]; honokiol 25 μM, cisplatin 50 μM (C50H25)): synergistic effect
protection of cervical cancer cells from the toxicity of cisplatin [1, 11]: not observed to protect
effect with cisplatin on colon cancer cells ([2]; honokiol 10 μM or 25 μM, cisplatin 50 μM): synergistic effect
protection of colon cancer cells from the toxicity of cisplatin [2, 11]: not observed to protect
DPOAE amplitude changes ([3]; mice pre-treated with HNK, cisplatin 15 mg/kg): less pronounced
cell toxicity [4]: no cell toxicity
HEI-OC1 apoptosis induced by cisplatin ([4]; 10 μM HNK, 50 μM cisplatin, 24 hours, preliminary study): completely prevent
protection against high dose cisplatin ototoxicity ([4]; HNK 10 μM, cisplatin 50 μM): ~100%
protection of HEI-OC1 cells against cisplatin-induced cell loss ([4]; honokiol 5 μM or 10 μM, cisplatin 50 μM or 100 μM): protect
SIRT3 expression level ([5]; HEI-OC1, HNK with cisplatin, 24 hours after cisplatin treatment, listed as HNK): increased; also recorded: elevated
DNA damage ([5]; HEI-OC1, cisplatin in the presence of HNK, pilot studies): diminished
cleavage of poly ADP ribose polymerase (PARP) ([5]; HEI-OC1, honokiol): decrease
expression of Caspase 3 ([5]; HEI-OC1, honokiol): decrease
expression of SIRT3 ([5]; HEI-OC1, increasing concentrations of honokiol): increase
expression of early apoptosis mark caspase-3 ([5]; HEI-OC1 co-treated with HNK and cisplatin versus cisplatin alone, pilot studies): higher in some cells
passage of the blood-brain barrier [6]: capable of passing the blood-brain barrier
passage of the blood-brain barrier ([6]; listed as HNK): can also cross the blood brain barrier; also recorded: permeable; also recorded: can pass through the blood-brain barrier
OHC structure ([7]; Cis 15 + HNK 20 mg/kg, up to the 40 kHz region, only sporadic loss of HCs): nearly intact OHC structure
prostate cancer cell (C4-2B) death from cisplatin treatment ([8]; HNK up to 25 μM, 50 μM cisplatin, preliminary data): did not prevent
protection of prostate cancer cells from the toxicity of cisplatin [8, 11]: not observed to protect
TS in tonal ABR at the highest frequency (32 kHz) ([9]; HNK 10 mg/kg and cisplatin 15 mg/kg): significant TS
TS at other frequencies and dose combinations ([9]; HNK 10-20 mg/kg, cisplatin 15-20 mg/kg): No further significant TS
ABR TS induced by cisplatin ([9]; mice pre-treated with HNK): decreased significantly
maximum weight loss ([10]; cisplatin 15 mg/kg with honokiol): about 15%
animals lost ([10]; cisplatin 20 mg/kg with honokiol): 20%
survival rate / animal loss [10, 12]: significantly reduced; also recorded: improved significantly
weight loss [10, 12]: significantly reduced; also recorded: largely improved

N.N.[Cl][Pt][Cl] [cisplatin, reference compound]
reduction in cervical cancer cells ([1]; cisplatin 50 μM or 100 μM): mild reduction
loss of colon cancer cells ([2]; cisplatin 100 μM): massive loss
DPOAE amplitude at high frequencies ([3]; mouse, in vivo): reduced
frequencies of apparent DPOAE amplitude drop ([3]; mouse, in vivo): over 16 kHz
OHC organization and HC loss ([7]; Cis 15 mg/kg, basal 1/3 of the cochlea (estimated over 22 kHz)): Significant disruption of OHC organization and HC loss
loss of prostate cancer cells ([8]; cisplatin 50 μM or 100 μM): massive loss
survival rate ([10]; cisplatin 20 mg/kg, day 8): zero
